We go through three molecules from patent US20210038682A1, “MODULATORS OF SMALL CONDUCTANCE CALCIUM ACTIVATED K+ CHANNELS AND PHARMACEUTICAL COMPOSITIONS FOR USE IN THE TREATMENT OF LESIONAL VESTIBULAR DISORDERS” (priority 2018, published 2021).

The subject of series [1] is UVN adult female rats. The experiment in a line: Subjective scoring of vestibular syndrome severity in the rat unilateral vestibular neurectomy model. Type of series: in vivo. The protocol: (§1) A unilateral vestibular neurectomy (UVN) was performed on adult female rats in order to induce unilateral vestibulopathy. Then, the small conductance calcium activated K^+ channels antagonists apamin, AG525E1 and NS8593 were administered intraperitoneally to UVN animals in double blind conditions once a day for 4 days, i.e. during the acute phase of the syndrome. It was then assessed the severity of posturo-locomotor deficits using appropriate behavior tests for 10 days after UVN. Subjective scoring of the vestibular syndrome was carried out according to the method previously published (Péricat et al. 2017; Tighilet et al. 2017). […]

For series [2], the system named is UVN adult female rats. The series is described as follows: Posturo-locomotor behavior tests (velocity, distance, immobility, meander) in the rat unilateral vestibular neurectomy model. In kind it is in vivo. Conditions: AG525E1 10 mg/kg i.p., from day 1. Here is the method: as §1
The conditions of series [3]: systemic administration; cited from earlier work.

Each structure is given as a SMILES string.

As for `COc1cc2c(cc1OC)C(CCCC1c3cc(OC)c(OC)cc3CCN1C)N(C)CC2` (stereo not shown) [AG525E1, 1,1′-(propane-1,3-diyl)-bis-(6,7-dimethoxy-2-methyl-1,2,3,4-tetrahydroisoquinoline)], in the series with UVN adult female rats [1] (AG525E1 10 mg/kg i.p. once a day for 4 days, at day 1, p<0.05 vs negative control), the Vestibular syndrome severity result is “significant decreased vestibular syndrome”. The Immobility time result in the series on UVN adult female rats [2] is reported as “tendency to reduce immobility time”.

Turning to `Cl.c1ccc2c(c1)CCC[C@H]2Nc1nc2ccccc2[nH]1` [NS8593, N-[(1R)-1,2,3,4-Tetrahydro-1-naphthalenyl]-1H-benzimidazol-2-amine hydrochloride], the Vestibular syndrome severity result in the series on UVN adult female rats [1] (NS8593 30 mg/kg i.p. once a day for 4 days, at day 1 and day 2, p<0.05 vs negative control) is “significant decreased vestibular syndrome”.

For `CC(C)C[C@@H]1NC(=O)[C@H](C)NC(=O)[C@H]([C@@H](C)O)NC(=O)[C@H](CCC(=O)O)NC(=O)[C@@H]2CCCN2C(=O)[C@H](C)NC(=O)[C@H](CCCCN)NC(=O)[C@@H]2CSSC[C@@H](C(=O)N[C@@H](CCC(N)=O)C(=O)N[C@@H](CCC(N)=O)C(=O)N[C@@H](Cc3cnc[nH]3)C(N)=O)NC(=O)[C@H](CCCNC(=N)N)NC(=O)[C@H](CCCNC(=N)N)NC(=O)[C@H](C)NC(=O)[C@H](CSSC[C@H](N)C(=O)N[C@@H](CC(N)=O)C(=O)N2)NC1=O` [apamin], the Blood-brain barrier crossing entry in series [3] is “cross the blood-brain barrier”.
